Measurements: PubChem BioAssay AID504748 (National Center for Advancing Translational Sciences (NCATS), 2011)

Test system: mouse liver microsomes, percent remaining, LC-MS/MS
Assay: Inhibitors of N370S glucocerebrosidase as a Potential Chaperone Treatment of Gaucher Disease: Metabolic Stability Profile
Details: at 5 µM; active compounds read high
Description: Glucocerebrosidase (GC) catalyzes the hydrolysis of beta-glucocerebroside to glucose and ceramide in lysosomes. Mutations in the glucocerebrosidase gene result in Gaucher disease, an autosomal recessive lysosomal storage disorder. Many of the mutations encountered in patients with Gaucher disease are missense alterations that may cause misfolding, decreased stability and/or mistrafficking of this lysosomal protein. […] These inhibitors include iminosugar analogs and three non-iminosugar inhibitors identified from a previous HTS of 62,000 compounds with the wild type recombinant enzyme. After further testing a probe has been identified and was characterized though AMDE tests. Mouse liver microsomes are created through broken up endoplasmic reticulum from mouse liver. These liver microsomes contain many drug metabolizing enzymes, such as Cytochome P-450s and flavin-containing monooxygenases. […] NIH Chemical Genomics Center [NCGC] NIH Molecular Libraries Probe Production Centers Network [MLPCN] MLPCN Grant: MH086442-01 Assay Submitter (PI): Wei Zheng
5uM of compound is incubated with mouse liver microsome; the reference compounds are verapamil and warfarin. Compounds are incubated and samples are analyzed with LC-MS/MS.

percent remaining: 102%
Compound: S=C(NCCCc1cnc[nH]1)NCCCN(Cc1ccc(Cl)c(Cl)c1)c1ccc(Br)cn1
